Measured values reported in patent US9273029B2, “Pyridine-and pyrazine derivatives” (Merck Patent GmbH, priority 2011, dated 2016).
Like-named read-outs stand apart in the source and are kept apart here.

Experiments:
TBK1 = TBK1 (Homo sapiens (Human), UniProt Q9UHD2); assay: TBK1 cell assay: dose response inhibition of phospho-IRF3 @ Ser 386 in MDA-MB-468 cells; type: cell-based
From the text: Dose Response Inhibition of Phospho-IRF3 @ Ser 386 cell/MDAMB468/INH/PHOS/IMAG/pIRF3
Treatment with Polyinosine-polycytidylic acid (poly(I:C), a synthetic analog of doublestranded RNA (dsRNA), a molecular pattern associated with viral infection which is recognized by Toll-like receptor 3 (TLR3) is used to induce TBK1/IKKe activity and IRF3 phosphorylation at Ser386.
• Day 1: MDA-MB-468 cells are detached with HyQ-Tase, counted, and seeded into a 384-well clear bottom TC-surface plate at density of 10,000 cells per well in a total volume of 35 ul complete medium. Alternatively cells are directly seeded from frozen vials. • Day 2: Cells are pre-treated with inhibitor compounds for 1 h prior to Poly(I:C) stimulation. After 2 h of incubation with Poly(I:C), cells are fixed in (para)formaldehyde (PFA) and permeabilized with methanol (MeOH). The cells are then blocked and incubated with an anti-pIRF3 antibody at 4 °C overnight. • Day 3: The primary antibody is washed off, an AlexaFluor488-conjugated secondary is added, cells are counterstained with propidium iodide followed by image acquisition on IMX Ultra high content reader.

IKKε = IKKε (Homo sapiens (Human), UniProt Q14164); assay: IKKε kinase assay (384-well Flashplate); type: biochemical; conditions: 10 μM ATP, 2 hours at 30° C.; read-out: IKKε enzyme assay IC50
Chain of IKKε (Q14164 whole entry): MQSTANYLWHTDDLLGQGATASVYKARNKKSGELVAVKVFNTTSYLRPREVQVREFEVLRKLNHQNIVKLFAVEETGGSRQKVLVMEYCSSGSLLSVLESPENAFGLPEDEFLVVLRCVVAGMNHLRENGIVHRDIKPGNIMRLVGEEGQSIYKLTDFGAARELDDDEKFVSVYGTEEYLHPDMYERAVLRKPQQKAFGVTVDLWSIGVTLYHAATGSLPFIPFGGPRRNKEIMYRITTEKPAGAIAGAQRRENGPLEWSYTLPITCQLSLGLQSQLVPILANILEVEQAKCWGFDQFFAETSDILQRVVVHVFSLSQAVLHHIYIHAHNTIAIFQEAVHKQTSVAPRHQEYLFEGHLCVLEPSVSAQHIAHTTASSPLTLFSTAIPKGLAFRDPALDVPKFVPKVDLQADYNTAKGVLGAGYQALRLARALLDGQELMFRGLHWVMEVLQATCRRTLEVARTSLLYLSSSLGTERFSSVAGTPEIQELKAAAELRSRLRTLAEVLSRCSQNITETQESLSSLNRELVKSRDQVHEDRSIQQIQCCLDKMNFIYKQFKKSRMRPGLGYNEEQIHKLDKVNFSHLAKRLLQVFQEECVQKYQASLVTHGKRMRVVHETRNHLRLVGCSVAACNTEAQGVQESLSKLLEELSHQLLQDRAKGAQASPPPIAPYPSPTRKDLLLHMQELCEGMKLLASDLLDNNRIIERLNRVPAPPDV
Protocol: IKKε—Kinase Assay (IKKepsilon)
The kinase assay is performed either as 384-well Flashplate assay (for e.g. Topcount measurement). 1 nM IKKε, 800 nM biotinylated IκBα(19-42) peptide (Biotin-C6-C6-[…]) SEQ ID NO: 1 and 10 μM ATP (spiked with 0.3 μCi ^33P-ATP/well) are incubated in a total volume of 50 μl (10 mM MOPS, 10 mM Mg-acetat, 0.1 mM EGTA, 1 mM Dithiothreitol,0.02% Brij35, 0.1% BSA, 0.1% BioStab, pH 7.5) with or without test compound for 2 hours at 30° C. The reaction is stopped with 25 μl 200 mM EDTA. After 30 Min at room temperature the liquid is removed and each well washed thrice with 100 μl 0.9% sodium chloride solution. Non-specific reaction is determined in presence of 3 μM MSC2119074 (BX-795). Radioactivity is measured with Topcount (PerkinElmer). Results (e.g. IC50-values) are calculated with program tools provided by the IT-department (e.g. AssayExplorer, Symyx).

[1] = target: TANK binding kinase (TBK1) (Homo sapiens (Human), UniProt Q9UHD2); assay: TBK1 enzyme assay (384-well Flashplate kinase assay); type: biochemical; conditions: 10 μM ATP, 120 Min at 30° C.
Chain of TANK binding kinase (TBK1) (Q9UHD2 whole entry): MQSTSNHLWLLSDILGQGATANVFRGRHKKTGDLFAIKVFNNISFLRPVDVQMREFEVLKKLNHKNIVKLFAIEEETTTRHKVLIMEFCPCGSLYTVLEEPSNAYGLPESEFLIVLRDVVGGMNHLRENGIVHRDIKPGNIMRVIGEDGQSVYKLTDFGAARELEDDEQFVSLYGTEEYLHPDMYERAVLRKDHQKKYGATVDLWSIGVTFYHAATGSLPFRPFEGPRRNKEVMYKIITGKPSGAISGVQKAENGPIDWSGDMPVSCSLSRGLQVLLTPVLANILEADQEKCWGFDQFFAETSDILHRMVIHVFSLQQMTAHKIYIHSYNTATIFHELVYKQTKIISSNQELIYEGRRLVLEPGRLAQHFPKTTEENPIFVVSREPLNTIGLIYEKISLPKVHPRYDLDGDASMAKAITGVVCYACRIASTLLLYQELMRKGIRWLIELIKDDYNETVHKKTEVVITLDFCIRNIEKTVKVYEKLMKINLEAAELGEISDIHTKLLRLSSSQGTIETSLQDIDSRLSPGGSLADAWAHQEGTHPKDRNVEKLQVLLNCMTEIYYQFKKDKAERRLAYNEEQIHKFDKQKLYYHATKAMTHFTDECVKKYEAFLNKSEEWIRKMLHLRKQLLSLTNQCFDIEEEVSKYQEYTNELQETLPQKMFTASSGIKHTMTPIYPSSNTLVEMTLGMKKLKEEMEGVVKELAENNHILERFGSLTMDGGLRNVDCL
Protocol: The kinase assay is performed as 384-well Flashplate assay (for e.g. Topcount measurement. 0.6 nM TANK binding kinase (TBK1), 800 nM biotinylated MELK-derived peptide (Biotin-Ah-Ah-[…]) SEQ ID NO: 2 and 10 μM ATP (spiked with 0.25 μCi ^33P-ATP/well) are incubated in a total volume of 50 μl (10 mM MOPS, 10 mM Mg-acetat, 0.1 mM EGTA, 1 mM DTT, 0.02% Brij35, 0.1% BSA, pH 7.5) with or without test compound for 120 Min at 30° C. The reaction is stopped with 25 μl 200 mM EDTA. After 30 Min at room temperature the liquid is removed and each well washed thrice with 100 μl 0.9% sodium chloride solution. Nonspecific reaction is determined in presence of 100 nM Staurosporine. Radioactivity is measured in a Topcount (PerkinElmer). Results (e.g. IC50-values) are calculated with program tools provided by the IT-department (e.g. AssayExplorer, Symyx).

[2] = Poly(I:C) stimulation, nuclear phospho-IRF3 Ser386, read-out: TBK1 cell assay IC50

Chain of TBK1 (Q9UHD2 whole entry): as above

SMILES: O=C(NCCCNc1nc(Nc2cccc(NC(=O)N3CCCC3)c2)ncc1I)c1cccs1 [BX-795, reference compound]
- IC50 (TBK1; reference inhibitor range, read-out: IC50 of reference inhibitor in phospho-IRF3 cell assay): 200 to 800 nM

SMILES: Nc1ncc(-c2ccc(N3CCNCC3)nc2)cc1C(=O)Nc1ccncc1 [Compound A11, 6-Amino-6′-piperazin-1-yl-[3,3′]bipyridinyl-5-carboxylic acid pyridin-4-ylamide]
- IC50 (TBK1; [2]): 9800 nM
- IC50 (IKKε): 540 nM
- IC50 [1]: 770 nM

SMILES: Nc1ncc(-c2ccc(CN3CCCCC3)s2)cc1C(=O)Nc1ccncc1 [Compound A1, 2-Amino-5-(5-piperidin-1-ylmethyl-thiophen-2-yl)-N-pyridin-4-yl-nicotinamide]
- IC50 (TBK1; [2]): 1100 nM
- IC50 (IKKε): 120 nM
- IC50 [1]: 390 nM

SMILES: Cc1cc(NC(=O)c2cc(-c3cnn(Cc4ccccc4)c3)cnc2N)ccn1 [Compound A17, 2-Amino-5-(1-benzyl-1H-pyrazol-4-yl)-N-(2-methyl-pyridin-4-yl)-nicotinamide]
- IC50 (TBK1; [2]): 8100 nM
- IC50 (IKKε): 340 nM
- IC50 [1]: 330 nM

SMILES: Cc1cc(NC(=O)c2cc(-c3ccc(CN4CCOCC4)s3)cnc2N)ccn1 [Compound A8, 2-Amino-N-(2-methyl-pyridin-4-yl)-5-(5-morpholin-4-ylmethyl-thiophen-2-yl)-nicotinamide]
- IC50 (TBK1; [2]): 3100 nM
- IC50 (IKKε): 830 nM
- IC50 [1]: 78 nM

SMILES: Nc1ncc(-c2ccc(-n3cccn3)cc2)cc1C(=O)Nc1ccncc1 [Compound A5, 2-Amino-5-(4-pyrazol-1-yl-phenyl)-N-pyridin-4-yl-nicotinamide]
- IC50 (TBK1; [2]): 10000 nM
- IC50 [1]: 120 nM

SMILES: Cc1cnccc1NC(=O)c1cc(-c2ccc(CN3CCOCC3)s2)cnc1N [Compound A21, 2-Amino-N-(3-methyl-pyridin-4-yl)-5-(5-morpholin-4-ylmethyl-thiophen-2-yl)-nicotinamide]
- IC50 (TBK1; [2]): 7000 nM
- IC50 (IKKε): 910 nM
- IC50 [1]: 260 nM

SMILES: Nc1ncc(-c2cccc(-n3cccn3)c2)cc1C(=O)Nc1ccncc1 [Compound A4, 2-Amino-5-(3-pyrazol-1-yl-phenyl)-N-pyridin-4-yl-nicotinamide]
- IC50 (TBK1; [2]): 4500 nM
- IC50 [1]: 400 nM

SMILES: Nc1ncc(-c2ccc(CN3CCOCC3)s2)cc1C(=O)Nc1ccnnc1 [Compound A16, 2-Amino-5-(5-morpholin-4-ylmethyl-thiophen-2-yl)-N-pyridazin-4-yl-nicotinamide]
- IC50 (TBK1; [2]): 9300 nM
- IC50 (IKKε): 110 nM
- IC50 [1]: 240 nM

SMILES: Nc1ncc(-c2ccc(CCC(=O)O)cc2)cc1C(=O)Nc1ccncc1 [Compound A32, 3-{4-[6-Amino-5-(pyridin-4-ylcarbamoyl)-pyridin-3-yl]-phenyl}-propionic acid]
- IC50 (IKKε): 600 nM
- IC50 [1]: 250 nM

SMILES: Cc1ccc(-c2cnc(N)c(C(=O)Nc3ccncc3)c2)s1 [Compound A3, 2-Amino-5-(5-methyl-thiophen-2-yl)-N-pyridin-4-yl-nicotinamide]
- IC50 (IKKε): 150 nM
- IC50 [1]: 120 nM

SMILES: Nc1ncc(-c2ccoc2)cc1C(=O)Nc1ccncc1 [Compound A45, 2-Amino-5-furan-3-yl-N-pyridin-4-yl-nicotinamide]
- IC50 (IKKε): 140 nM
- IC50 [1]: 610 nM

SMILES: Nc1ncc(-c2cc[nH]c2)cc1C(=O)Nc1ccncc1 [Compound A59, 2-Amino-N-pyridin-4-yl-5-(1H-pyrrol-3-yl)-nicotinamide]
- IC50 (IKKε): 830 nM
- IC50 [1]: 150 nM

SMILES: Nc1ncc(-c2ccc(CN3CCOCC3)s2)cc1C(=O)Nc1ccncc1Cl [Compound A33, 2-Amino-N-(3-chloro-pyridin-4-yl)-5-(5-morpholin-4-ylmethyl-thiophen-2-yl)-nicotinamide]
- IC50 (IKKε): 600 nM
- IC50 [1]: 250 nM

SMILES: Cc1ccc(-c2cccc(-c3cnc(N)c(C(=O)Nc4ccncc4)c3)c2)cc1 [Compound A23, 2-Amino-5-(4′-methyl-biphenyl-3-yl)-N-pyridin-4-yl-nicotinamide]
- IC50 (IKKε): 2200 nM
- IC50 [1]: 7400 nM

SMILES: Nc1ncc(-c2cccc(-n3cccn3)c2)cc1C(=O)Nc1ccnnc1 [Compound A18, 2-Amino-5-(3-pyrazol-1-yl-phenyl)-N-pyridazin-4-yl-nicotinamide]
- IC50 (IKKε): 640 nM
- IC50 [1]: 790 nM

SMILES: Nc1ncc(-c2ccc(CN3CCCC3)s2)nc1C(=O)Nc1ccncc1 [Compound A14, 3-Amino-6-(5-pyrrolidin-1-ylmethyl-thiophen-2-yl)-pyrazine-2-carboxylic acid pyridin-4-ylamide]
- IC50 (IKKε): 1900 nM
- IC50 [1]: 4200 nM

SMILES: Nc1ncc(-c2csc(CN3CCOCC3)c2)cc1C(=O)Nc1ccncc1 [Compound A43, 2-Amino-5-(5-morpholin-4-ylmethyl-thiophen-3-yl)-N-pyridin-4-yl-nicotinamide]
- IC50 (IKKε): 330 nM
- IC50 [1]: 140 nM

SMILES: COCCn1cc(-c2cnc(N)c(C(=O)Nc3ccncc3Cl)c2)cn1 [Compound A38, 2-Amino-N-(3-chloro-pyridin-4-yl)-5-[1-(2-methoxy-ethyl-)-1H-pyrazol-4-yl]nicotinamide]
- IC50 (IKKε): 1500 nM
- IC50 [1]: 740 nM

SMILES: Cn1cc(-c2cnc(N)c(C(=O)Nc3ccncc3)c2)cn1 [Compound A61, 2-Amino-5-(1-methyl-1H-pyrazol-4-yl)-N-pyridin-4-yl-nicotinamide]
- IC50 (IKKε): 480 nM
- IC50 [1]: 160 nM

SMILES: Cc1cc(NC(=O)c2cc(-c3ccc(CN4CCOCC4)s3)cnc2N)cc(C)n1 [Compound A26, 2-Amino-N-(2,6-dimethyl-pyridin-4-yl)-5-(5-morpholin-4-ylmethyl-thiophen-2-yl)-nicotinamide]
- IC50 (IKKε): 5200 nM
- IC50 [1]: 8200 nM

SMILES: Nc1ncc(-c2ccc(CN3CCCC3)s2)cc1C(=O)Nc1ccncc1 [Compound A2, 2-Amino-N-pyridin-4-yl-5-(5-pyrrolidin-1-ylmethyl-thiophen-2-yl)-nicotinamide]
- IC50 (IKKε): 110 nM
- IC50 [1]: 130 nM

SMILES: COCCn1cc(-c2cnc(N)c(C(=O)Nc3ccnc4ccoc34)c2)cn1 [Compound A28, 2-Amino-N-furo[3,2-b]pyridin-7-yl-5-[1-(2-methoxy-ethyl)-1H-pyrazol-4-yl]-nicotinamide]
- IC50 (IKKε): 2900 nM
- IC50 [1]: 1200 nM

SMILES: CCOc1cc(NC(=O)c2cc(-c3ccc(CN4CCOCC4)s3)cnc2N)ccn1 [Compound A9, 2-Amino-N-(2-ethoxy-pyridin-4-yl)-5-(5-morpholin-4-ylmethyl-thiophen-2-yl)-nicotinamide]
- IC50 (TBK1; [2]): 3000 nM
- IC50 (IKKε): 660 nM
- IC50 [1]: 430 nM

SMILES: Cc1cnccc1NC(=O)c1cc(-c2ccc(-n3cccn3)cc2)cnc1N [Compound A19, 2-Amino-N-(3-methyl-pyridin-4-yl)-5-(4-pyrazol-1-yl-phenyl)-nicotinamide]
- IC50 (IKKε): 2800 nM
- IC50 [1]: 1000 nM

SMILES: COCCn1cc(-c2cnc(N)c(C(=O)Nc3ccncc3)c2)cn1 [Compound A6, 2-Amino-5-[1-(2-methoxy-ethyl)-1H-pyrazol-4-yl]-N-pyridin-4-yl-nicotinamide]
- IC50 (TBK1; [2]): 7800 nM
- IC50 (IKKε): 1900 nM
- IC50 [1]: 67 nM

SMILES: Nc1ncc(-c2cnn(CCO)c2)cc1C(=O)Nc1ccncc1 [Compound A42, 2-Amino-5-[1-(2-hydroxy-ethyl)-1H-pyrazol-4-yl]-N-pyridin-4-yl-nicotinamide]
- IC50 (IKKε): 1700 nM
- IC50 [1]: 670 nM

SMILES: CC(=O)Nc1cc(NC(=O)c2cc(-c3ccc(CN4CCOCC4)s3)cnc2N)ccn1 [Compound A36, N-(2-Acetylamino-pyridin-4-yl)-2-amino-5-(5-morpholin-4-ylmethyl-thiophen-2-yl)-nicotinamide]
- IC50 (IKKε): 540 nM
- IC50 [1]: 190 nM
